Source: patent US9365540B2, “Benzimidazole derivatives as MCH receptor antagonists” (Takeda Pharmaceutical Company Limited, priority 2012, dated 2016)

Assays:
human MCHR1 = target: T1, human MCHR1 (Homo sapiens, UniProt Q99705); experiment: MCH receptor 1 antagonistic activity, Ca2+ mobilization assay; assay type: cell-based; settings: CHO, test compound 0.1 μM; human MCHR1-expressing CHO cells (clone #4); ligand MCH(4-19) 2 nM; read-out: Inhibitory rate % (0.1 μM)
T1 construct: expressed in transfected cells; host or cells: CHO dhfr- cells, clone #4
T1 sequence (Q99705 whole entry): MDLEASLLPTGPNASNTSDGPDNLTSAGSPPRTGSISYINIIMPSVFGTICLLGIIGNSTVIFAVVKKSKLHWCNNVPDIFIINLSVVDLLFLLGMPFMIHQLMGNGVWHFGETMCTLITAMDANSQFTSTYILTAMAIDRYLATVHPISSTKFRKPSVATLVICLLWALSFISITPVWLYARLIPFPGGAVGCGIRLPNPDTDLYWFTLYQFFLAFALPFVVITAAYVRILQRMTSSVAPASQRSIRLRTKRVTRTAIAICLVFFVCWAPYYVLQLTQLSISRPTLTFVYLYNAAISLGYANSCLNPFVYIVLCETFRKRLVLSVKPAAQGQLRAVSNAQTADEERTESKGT
Protocol: Measurement of MCH Receptor 1 Antagonistic Activity of Test Compound Using Ca^2+ Mobilization Assay Using an expression vector plasmid introduced with human MCHR1 gene for expression in animal cells, human MCHR1 gene was introduced into CHO cells (CHO dhfr^−) by Lipofectamine LTX (Invitrogen). The cells were cultured in selection MEMα medium [445 mL of MEMα medium without nucleic acid and added with 5 mL of Penicillin-Streptomycin (Invitrogen) and 50 mL of dialyzed fetal bovine serum]. Colony 24 clones grown in the selection medium, which were human MCHR1 gene-expressing CHO cell candidates, were selected. […] In the following test, this human MCHR1-expressing CHO cell (clone #4) was used. An integrated dispensing function fluorometer (CellLux, PerkinElmer) was used for Ca^2+ mobilization assay. […] The medium was removed, and the cells were washed with phosphate buffered saline (PBS). […] The plate was set on a plate reader. […] The inhibition rates (%) of test compounds (0.1 μM) as antagonist activity measured using human MCHR1-expressing CHO cells (clone #4) are shown in the following Table 3.

[1] = target: T2, human MCH receptor 1 (MCHR1) (Homo sapiens, UniProt Q99705); experiment: human MCH receptor 1 (MCHR1) competitive binding assay with [125I]-MCH(4-19); settings: test compound 0.1 μM, human MCHR1-expressing CHO cell membrane fraction, read-out: Binding inhibition rate % (0.1 μM)
T2 construct: expressed in transfected cells; host or cells: CHO cell clone 57 (membrane fraction)
T2 sequence (Q99705 whole entry): as above
Protocol: Determination of human MCH receptor 1 (MCHR1) competitive inhibitory activity of test compound using binding assay
1. Preparation of Membrane Fraction
Using human MCHR1 (=SLC-1 receptor)-expressing CHO cell clone 57 described in WO01/82925, MCHR1-expressing CHO cell membrane fractions were prepared by the following method.
In phosphate buffered saline (pH 7.4) supplemented with 5 mM EDTA (ethylenediaminetetraacetic acid) were respectively suspended human MCHR1-expressing CHO cells (1×10^8 cells) and centrifuged. Homogenate buffer (10 mL, 10 mM NaHCO3, 5 mM EDTA, pH 7.5, 0.5 mM PMSF (phenylmethylsulfonyl fluoride), 20 mg/L leupeptin, 4 mg/L E-64, 1 mg/L pepstatin A) was added to the pellets of the cells and, using Polytron Homogenizer, the mixture was homogenated. The supernatant obtained after centrifugation at 400×g for 10 min was further centrifuged at 100,000×g for 1 hr to give precipitate of the membrane fraction. The precipitate were suspended in 2 mL of assay buffer [20 mM Tris-HCl (pH 7.5), 5 mM EDTA, 0.5 mM PMSF, 20 mg/L leupeptin, 4 mg/L E-64, 1 mg/L pepstatin A]. The membrane fractions were suspended in assay buffer to a protein concentration of 2 mg/mL, and after dispensing, preserved at −80° C. and used upon thawing each time when in use.
The MCHR1 ligand binding inhibitory activity of the test compound was determined as follows.
An MCHR1-expressing CHO cell membrane fraction (173 μL) diluted with an assay buffer was dispensed to a 96 well polypropylene plate (3363, Corning). DMSO solution (2 μL), 33 μM cold MCH(1-19) diluted with DMSO solution (2 μL), or a test compound solution diluted with DMSO solution to various concentrations (2 μL) was added, and lastly, [^125I]-MCH (4-19) diluted with assay buffer (hereinafter, sometimes to be referred to as “hot MCH”, 25 μL) was added to each well. The mixture was reacted with stirring at room temperature for 1 hr, and the plate was set on FilterMate Harvester (PerkinElmer). Using a treating glass filter plate (GF/C, PerkinElmer) with polyethyleneimine, which had been previously set, the plate was suction-filtered and washed three times with washing buffer (50 mM Tris-HCl buffer pH 7.5). The glass filter plate was dried, MicroScinti0 (PerkinElmer) was added at 25 μL/well, and the resulting radioactivity was measured by TopCount liquid scintillation counter (PerkinElmer). The binding inhibition rate of the test compound was calculated by the following formula. Binding inhibition (%)=100−(radioactivity upon addition of test compound and hot MCH−radioactivity upon addition of cold MCH and hot MCH solution)/(radioactivity upon addition of DMSO solution and hot MCH−radioactivity upon addition of cold MCH and hot MCH solution)×100
The binding inhibition rates (%) of test compounds (0.1 μM) as measured using human MCHR1-expressing CHO cell are shown in Table 2.

inhibition at 0.1 µM (human MCHR1) [%] | inhibition at 0.1 µM [1] [%] | SMILES
99 | 91 | Cn1c([C@@H]2C[C@@H]2C(C)(C)O)nc2ccc(-n3ccc(OCc4ccc(Cl)cc4)cc3=O)cc21 (racemic) [Example 80, 4-((4-Chlorobenzyl)oxy)-1-(2-((1RS,2SR)-2-(2-hydroxypropan-2-yl)cyclopropyl)-1-methyl-1H-benzimidazol-6-yl)pyridin-2(1H)-one]
94 | 69 | Cn1c([C@H]2C[C@H]2C#N)nc2ccc(-n3ccc(OCc4ccc(Cl)cc4)cc3=O)cc21 (racemic) [Example 148, (1RS,2SR)-2-(6-(4-((4-Chlorobenzyl)oxy)-2-oxopyridin-1(2H)-yl)-1-methyl-1H-benzimidazol-2-yl)cyclopropanecarbonitrile]
61 | 52 | Cn1c(C(=O)C2CC2)nc2ccc(-n3ccc(OCc4ccc(F)cc4)cc3=O)cc21 [Example 31, 1-(2-(Cyclopropylcarbonyl)-1-methyl-1H-benzimidazol-6-yl)-4-((4-fluorobenzyl)oxy)pyridin-2(1H)-one]
100 | 69 | CC1CC1c1nc2ccc(-n3ccc(OCc4ccc(F)cc4)cc3=O)cc2n1C (stereo not drawn) [Example 43, 4-((4-Fluorobenzyl)oxy)-1-(1-methyl-2-(2-methylcyclopropyl)-1H-benzimidazol-6-yl)pyridin-2(1H)-one]
57 | 63 | Cn1c(C2CC2(F)F)nc2ccc(-n3ccc(OCc4ccc(Cl)cc4)cc3=O)cc21 (stereo not drawn) [Example 62, 4-((4-Chlorobenzyl)oxy)-1-(2-(2,2-difluorocyclopropyl)-1-methyl-1H-benzimidazol-6-yl)pyridin-2(1H)-one]
99 | 76 | CCCc1nc2ccc(-n3ccc(OCc4ccc(F)cc4)cc3=O)cc2n1C [Example 64, 4-((4-Fluorobenzyl)oxy)-1-(1-methyl-2-propyl-1H-benzimidazol-6-yl)pyridin-2(1H)-one]
84 | 57 | CC(=O)c1nc2ccc(-n3ccc(OCc4ccc(F)cc4)cc3=O)cc2n1C [Example 66, 1-(2-Acetyl-1-methyl-1H-benzimidazol-6-yl)-4-((4-fluorobenzyl)oxy)pyridin-2(1H)-one]
58 | 65 | Cn1c(-c2cnco2)nc2ccc(-n3ccc(OCc4ccc(F)cc4)cc3=O)cc21 [Example 69, 4-((4-Fluorobenzyl)oxy)-1-(1-methyl-2-(1,3-oxazol-5-yl)-1H-benzimidazol-6-yl)pyridin-2(1H)-one]
46 | 73 | Cc1ncoc1-c1nc2ccc(-n3ccc(OCc4ccc(F)cc4)cc3=O)cc2n1C [Example 89, 4-((4-Fluorobenzyl)oxy)-1-(1-methyl-2-(4-methyl-1,3-oxazol-5-yl)-1H-benzimidazol-6-yl)pyridin-2(1H)-one]
101 | 60 | Cc1nc2ccc(-n3ccc(OCc4ccc(Cl)cc4)cc3=O)cc2n1C [Example 107, 4-((4-Chlorobenzyl)oxy)-1-(1,2-dimethyl-1H-benzimidazol-6-yl)pyridin-2(1H)-one]

More lines, now with the values behind:

SMILES | inhibition at 0.1 µM (human MCHR1) [%] | inhibition at 0.1 µM [1] [%]
Cn1c(C2CC2)nc2ccc(-n3ccc([C@@H]4C[C@H]4c4ccc(Cl)cc4)cc3=O)cc21 (racemic) [Example 253, 4-((1RS,2RS)-2-(4-chlorophenyl)cyclopropyl)-1-(2-cyclopropyl-1-methyl-1H-benzimidazol-6-yl)pyridin-2(1H)-one] | 69 | 64
CC(C)Cc1nc2ccc(-n3ccc(OCc4ccc(Cl)cc4)cc3=O)cc2n1C [Example 37, 4-((4-Chlorobenzyl)oxy)-1-(2-isobutyl-1-methyl-1H-benzimidazol-6-yl)pyridin-2(1H)-one] | 51 | 59
Cc1c(C2CC2)nc2ccc(-n3ncc(OCc4ccc(Cl)cc4)cc3=O)cn12 [Example 55, 5-((4-Chlorobenzyl)oxy)-2-(2-cyclopropyl-3-methylimidazo[1,2-a]pyridin-6-yl)pyridazin-3(2H)-one] | 78 | 53
Cc1c(C2CC2)nc2ccc(-n3ccc(OCc4ccc(Cl)cc4)nc3=O)cn12 [Example 70, 4-((4-Chlorobenzyl)oxy)-1-(2-cyclopropyl-3-methylimidazo[1,2-a]pyridin-6-yl)pyrimidin-2(1H)-one] | 35 | 79
Cn1c(C2CC2)nc2ccc(-n3ccc(OCc4ccccc4F)cc3=O)cc21 [Example 71, 1-(2-Cyclopropyl-1-methyl-1H-benzimidazol-6-yl)-4-((2-fluorobenzyl)oxy)pyridin-2(1H)-one] | 43 | 72
Cn1c(C2CC2)nc2ccc(-n3ccc(OCc4cccc(F)c4)cc3=O)cc21 [Example 72, 1-(2-Cyclopropyl-1-methyl-1H-benzimidazol-6-yl)-4-((3-fluorobenzyl)oxy)pyridin-2(1H)-one] | 58 | 80
Cn1c(C2CC2)nc2ccc(-n3ccc(OCc4ccsc4)cc3=O)cc21 [Example 75, 1-(2-Cyclopropyl-1-methyl-1H-benzimidazol-6-yl)-4-(3-thienylmethoxy)pyridin-2(1H)-one] | 80 | 84
Cn1c(CC2CC2)nc2ccc(-n3ccc(OCc4ccc(Cl)cc4)cc3=O)cc21 [Example 91, 4-((4-Chlorobenzyl)oxy)-1-(2-(cyclopropylmethyl)-1-methyl-1H-benzimidazol-6-yl)pyridin-2(1H)-one] | 70 | 67
CCc1nc2ccc(-n3ccc(OCc4ccc(Cl)cc4)cc3=O)cc2n1C [Example 102, 4-((4-Chlorobenzyl)oxy)-1-(2-ethyl-1-methyl-1H-benzimidazol-6-yl)pyridin-2(1H)-one] | 97 | 75
CCCc1nc2ccc(-n3ccc(OCc4ccc(Cl)cc4)cc3=O)cc2n1C [Example 103, 4-((4-Chlorobenzyl)oxy)-1-(1-methyl-2-propyl-1H-benzimidazol-6-yl)pyridin-2(1H)-one] | 63 | 78
CC(=O)c1nc2ccc(-n3ccc(OCc4ccc(Cl)cc4)cc3=O)cc2n1C [Example 104, 1-(2-Acetyl-1-methyl-1H-benzimidazol-6-yl)-4-((4-chlorobenzyl)oxy)pyridin-2(1H)-one] | 61 | 60
CCc1nc2ccc(-n3ccc(OCc4ccsc4F)cc3=O)cc2n1C [Example 234, 1-(2-Ethyl-1-methyl-1H-benzimidazol-6-yl)-4-((2-fluoro-3-thienyl)methoxy)pyridin-2(1H)-one] | – | 50
CCc1nc2ccc(-n3ccc(OCc4ccc(F)s4)cc3=O)cc2n1C [Example 246, 1-(2-Ethyl-1-methyl-1H-benzimidazol-6-yl)-4-((5-fluorothiophen-2-yl)methoxy)pyridin-2(1H)-one] | – | 52
Cn1c(C2CC2)nc2ccc(-n3ccc(OCc4ccc5sccc5c4)cc3=O)cc21 [Example 255, 4-(1-Benzothiophen-5-ylmethoxy)-1-(2-cyclopropyl-1-methyl-1H-benzimidazol-6-yl)pyridin-2(1H)-one] | – | 85
